In patent publication US11274093B2, “Fused bicyclic benzoheteroaromatic compounds and methods of use thereof” (Araxes Pharma LLC, priority 2017, dated 2022):

biological target: T1, KRAS G12C 1-169, his-tagged protein, GDP-loaded (Homo sapiens, UniProt P01116, G12C); test: Biochemical assay: covalent binding to KRAS G12C measured by mass spectrometry; conditions: covalently bind to KRAS G12C, after a thirty minute incubation period
T1 construct: KRAS G12C 1-169, his-tagged protein, GDP-loaded
Procedure: Test compounds were prepared as 10 mM stock solutions in DMSO (Fisher cat #BP-231-100). KRAS G12C 1-169, his-tagged protein, GDP-loaded was diluted to 0.5 μM in buffer (20 mM Hepes, 150 mM NaCl, 1 mM MgCl2). Compounds were tested for activity as follows:
Compounds were diluted to 50× final test concentration in DMSO in 96-well storage plates. Compound stock solutions were vortexed before use and observed carefully for any sign of precipitation. Dilutions were as follow: • For 100 μM final compound concentration, compounds were diluted to 5000 μM (5 μL 10 mM compound stock+5 μL DMSO and mixed well by pipetting. • For 30 μM final compound concentration, compounds were diluted to 1500 μM (3 μL 10 mM compound stock+17 μL DMSO) and mixed well by pipetting. • For 10 μM final compound concentration, compounds were diluted to 500 μM (2 μL 10 mM compound stock+38 μL DMSO) and mixed well by pipetting. 49 μL of the stock protein solution was added to each well of a 96-well PCR plate (Fisher cat #1423027). 1 μl of the diluted 50× compounds were added to appropriate wells in the PCR plate using 12-channel pipettor. Reactions were mixed carefully and thoroughly by pipetting up/down with a 200 μL multi-channel pipettor. The plate was sealed well with aluminum plate seal, and stored in drawer at room temperature for 10 minutes, 30 minutes, 2 hours or 24 hours. 5 μL of 2% formic acid (Fisher cat #A117) in de-ionized H2O was then added to each well followed by mixing with a pipette. The plate was then resealed with aluminum seal and stored on dry ice until analyzed as described below.
The above described assays were analyzed by mass spectrometry according to one of the following two procedures:
The MS instrument is set to positive polarity, 2 GHz resolution, and low mass (1700) mode and allowed to equilibrate for 30 minutes. The instrument is then calibrated, switched to acquisition mode and the appropriate method loaded.
After another 30 minute equilibration time, a blank batch (i.e., buffer) is run to ensure equipment is operating properly. The samples are thawed at 37° C. for 10 minutes, briefly centrifuged, and transfer to the bench top. Wells A1 and H12 are spiked with 1 μL 500 μM internal standard peptide, and the plates centrifuged at 2000×g for 5 minutes. The method is then run and masses of each individual well recorded.
The masses (for which integration data is desired) for each well are pasted into the platemap and exported from the analysis. Masses for the internal standards are exported as well. The data at 50 ppm is extracted for the +19 charge state, and identity of well A1 is assigned using the internal standard spike and integrated. Peak data is exported as a TOF list and the above steps are repeated individually, for the +20, 21, 22, 23, 24, and 25 charge states.
The masses and peak intensities of KRAS G12C protein species were measured using a Dionex RSLCnano system (Thermo Scientific) connected to a Q Exactive Plus mass spectrometer (Thermo Scientific).
[…] of sample was each loaded onto a Aeris™ […] WIDEPORE C4 200 Å, LC Column 50×2.1 mm column maintained at 40° C. at a flow rate of 600 μL/min with […] (0.1% formic acid in acetonitrile). The liquid chromatography conditions were 20% solvent B for 1 minute, 20% to 60% solvent B for 1.5 minutes, 60% to 90% solvent for 0.5 minute, 90% solvent B for 0.2 minute, 90% to 20% solvent B for 0.2 minute, and then equilibrated for 1.6 minute before the following sample injection. The flow rate was maintained at 600 μL/min throughout the sample analysis.
The mass spectrometer was operated in profile mode at a resolution of 17500, 5 microscans, using 50 msec max injection time and an AGC target of 1×10^6, and a full mass range from 800-1850 m/z was recorded. The HCD trapping gas was optimized for maximum sensitivity for intact proteins. […]

SMILES	Binding %
C=CC(=O)N1CCCC(Nc2cnnc3c(-c4c(C)ccc5[nH]ncc45)cccc23)C1 (centres unmarked) [Compound 21, 1-(3-((8-(5-methyl-1H-indazol-4-yl)cinnolin-4-yl)amino)piperidin-1-yl)prop-2-en-1-one]	+ (+ indicates binding activity up to 5%)
C=CC(=O)N1CC(Nc2cncc3c(-c4cc(O)cc5ccccc45)ccnc23)C1 [Compound 24, 1-(3-((4-(3-hydroxynaphthalen-1-yl)-1,6-naphthyridin-8-yl)amino)azetidin-1-yl)prop-2-en-1-one]	++ (++ indicates binding activity of 5% or more)
C=CC(=O)N1CC(Nc2ncnc3c(-c4c(C)ccc5[nH]ncc45)cccc23)C1 [Compound 1, 1-(3-((8-(5-methyl-1H-indazol-4-yl)quinazolin-4-yl)amino)azetidin-1-yl)prop-2-en-1-one]	+ (+ indicates binding activity up to 5%)
C=CC(=O)N1CC(Nc2ncnc3c(-c4cc(O)cc5ccccc45)cccc23)C1 [Compound 2, 1-(3-((8-(3-hydroxynaphthalen-1-yl)quinazolin-4-yl)amino)azetidin-1-yl)prop-2-en-1-one]	++ (++ indicates binding activity of 5% or more)
C=CC(=O)N1CC(Nc2cncc3c(-c4c(C)ccc5[nH]ncc45)cccc23)C1 [Compound 26, 1-(3-((8-(5-methyl-1H-indazol-4-yl)isoquinolin-4-yl)amino)azetidin-1-yl)prop-2-en-1-one]	++ (++ indicates binding activity of 5% or more)
C=CC(=O)N1CCC(Nc2cnnc3c(-c4c(C)ccc5[nH]ncc45)cccc23)C1 (centres unmarked) [Compound 23, 1-(3-((8-(5-methyl-1H-indazol-4-yl)cinnolin-4-yl)amino)pyrrolidin-1-yl)prop-2-en-1-one]	+ (+ indicates binding activity up to 5%)
C=CC(=O)N1CC(Nc2cncc3c(-c4cc(O)cc5ccccc45)cccc23)C1 [Compound 25, 1-(3-((8-(3-hydroxynaphthalen-1-yl)isoquinolin-4-yl)amino)azetidin-1-yl)prop-2-en-1-one]	++ (++ indicates binding activity of 5% or more)
C=CC(=O)N1CCC(Nc2cnnc3c(-c4cc(O)cc5ccccc45)cccc23)C1 (centres unmarked) [Compound 22]	+ (+ indicates binding activity up to 5%)
C=CC(=O)N1CCN(c2cnnc3c(-c4c(C)ccc5[nH]ncc45)cccc23)CC1 [Compound 19, 1-(4-(8-(5-methyl-1H-indazol-4-yl)cinnolin-4-yl)piperazin-1-yl)prop-2-en-1-one]	+ (+ indicates binding activity up to 5%)
C=CC(=O)N1CC(Nc2cnnc3c(-c4cc(O)cc5ccccc45)cccc23)C1 [Compound 18, 1-(3-((8-(3-hydroxynaphthalen-1-yl)cinnolin-4-yl)amino)azetidin-1-yl)prop-2-en-1-one]	++ (++ indicates binding activity of 5% or more)
C=CC(=O)N1CCN(c2cnnc3c(-c4cc(O)cc5ccccc45)cccc23)CC1 [Compound 20, 1-(4-(8-(3-hydroxynaphthalen-1-yl)cinnolin-4-yl)piperazin-1-yl)prop-2-en-1-one]	++ (++ indicates binding activity of 5% or more)
